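Step 1: Grow cells in 96-well plates. Step 2: Expose to compound for 48 hours at 5 concentrations. Step 3: Interpolate endpoints linearly; if unreached, use highest concentration. Here, GI50 denotes the concentration required for 50% inhibition of growth.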 The source made the active and inactive calls. Cut-off read from the data, not from the text of the source: active = GI50 up to about 1.1 µM and inactive = higher.
How the values were obtained:
Assay in all cases: NCI anticancer screen, dose series, 48 h
[1] = system: HL-60
[2] = system: A549
[3] = system: HOP-92
[4] = system: SF-539
[5] = system: KM12
[6] = system: NCI-H23
[7] = system: SF-295
[8] = system: UACC-257
[9] = system: NCI-H460
[10] = system: SW-620
[11] = system: SK-OV-3
[12] = system: IGROV-1
[13] = system: EKVX
[14] = system: HOP-62
[15] = system: SNB-75
[16] = system: HCT-116
[17] = system: SK-MEL-2
[18] = system: SK-MEL-28
[19] = system: K562
[20] = system: OVCAR-4

With `CC(C)=CCC/C(C)=C/CCC1(C)C=Cc2c(c3ccccc3oc2=O)O1` (configuration not stated) the GI50 [1] was 23.8 µM (inactive), the GI50 [2] was 17.5 µM (inactive) and the GI50 [3] was 12.2 µM (inactive). For the same molecule, the GI50 [4] was 16.1 µM (inactive), the GI50 [5] was 18.5 µM (inactive) and the GI50 [6] was 14.8 µM (inactive). The GI50 [7] was 18.8 µM (inactive), the GI50 [8] was 17.1 µM (inactive) and the GI50 [9] was 15.8 µM (inactive). The GI50 [10] was 19.4 µM (inactive), the GI50 [11] was 27.3 µM (inactive) and the GI50 [12] was 16.4 µM (inactive). The GI50 [13] was 18.5 µM (inactive), the GI50 [14] was 13.2 µM (inactive) and the GI50 [15] was 13.4 µM (inactive). For the same molecule, the GI50 [16] was 14.8 µM (inactive), the GI50 [17] was 17.4 µM (inactive) and the GI50 [18] was 16.1 µM (inactive). The GI50 [19] was 23.6 µM (inactive) and the GI50 [20] was 14.5 µM (inactive).

In the case of `O=C1N/C(=N/N=C/c2c[nH]c3ccccc23)N/C1=C\c1cccs1`, the GI50 [1] is reported as 19.4 µM (inactive), the GI50 [2] is reported as 76.6 µM (inactive) and the GI50 [3] is reported as 49 µM (inactive). The GI50 [4] was > 100 µM (inactive), the GI50 [5] was 55.8 µM (inactive) and the GI50 [6] was > 100 µM (inactive). For the same molecule, the GI50 [7] was > 100 µM (inactive), the GI50 [8] was 77.3 µM (inactive) and the GI50 [9] was > 100 µM (inactive). The GI50 [10] was > 100 µM (inactive), the GI50 [11] was 38.6 µM (inactive) and the GI50 [12] was > 100 µM (inactive). For the same molecule, the GI50 [13] was > 100 µM (inactive), the GI50 [14] was > 100 µM (inactive) and the GI50 [15] was > 100 µM (inactive). For the same molecule, the GI50 [16] was 53.8 µM (inactive), the GI50 [17] was 45.5 µM (inactive) and the GI50 [18] was > 100 µM (inactive). For the same molecule, the GI50 [19] was > 100 µM (inactive) and the GI50 [20] was > 100 µM (inactive).

`CNS(=O)(=O)NN(C)S(=O)(=O)c1ccc(F)cc1` was tested, and the GI50 [1] was > 100 µM (inactive), the GI50 [2] was > 100 µM (inactive) and the GI50 [3] was > 100 µM (inactive). The GI50 [4] was > 100 µM (inactive), the GI50 [5] was > 100 µM (inactive) and the GI50 [6] was > 100 µM (inactive). For the same molecule, the GI50 [7] was > 100 µM (inactive), the GI50 [8] was > 100 µM (inactive) and the GI50 [9] was 40.7 µM (inactive). The GI50 [10] was > 100 µM (inactive), the GI50 [11] was > 100 µM (inactive) and the GI50 [12] was > 100 µM (inactive). The GI50 [13] was > 100 µM (inactive), the GI50 [14] was > 100 µM (inactive) and the GI50 [15] was 47 µM (inactive). For the same molecule, the GI50 [16] was > 100 µM (inactive), the GI50 [17] was > 100 µM (inactive) and the GI50 [18] was > 100 µM (inactive). For the same molecule, the GI50 [19] was > 100 µM (inactive) and the GI50 [20] was > 100 µM (inactive).

With `CCSc1nc(N/N=C/c2cccs2)c2cnn(CO)c2n1` the GI50 [1] was 5.15 µM (inactive), the GI50 [2] was 7 µM (inactive) and the GI50 [3] was 16.9 µM (inactive). For the same molecule, the GI50 [4] was 10.5 µM (inactive), the GI50 [5] was 0.408 µM (active) and the GI50 [6] was 7.05 µM (inactive). For the same molecule, the GI50 [7] was 8.13 µM (inactive), the GI50 [8] was 11.6 µM (inactive) and the GI50 [9] was 5.11 µM (inactive). The GI50 [10] was 4.42 µM (inactive), the GI50 [11] was 14.6 µM (inactive) and the GI50 [12] was 2.61 µM (inactive). The GI50 [13] was 9.08 µM (inactive), the GI50 [14] was 4.25 µM (inactive) and the GI50 [15] was 14.2 µM (inactive). The GI50 [16] was 5.01 µM (inactive), the GI50 [17] was 10.6 µM (inactive) and the GI50 [18] was 14.9 µM (inactive). For the same molecule, the GI50 [19] was 4.13 µM (inactive) and the GI50 [20] was 23.6 µM (inactive).

For `CC1=NC=C(O)c2ccccc2O1`, the GI50 [1] was > 100 µM (inactive), the GI50 [2] was > 100 µM (inactive) and the GI50 [3] was > 100 µM (inactive). For the same molecule, the GI50 [4] was > 100 µM (inactive), the GI50 [5] was > 100 µM (inactive) and the GI50 [6] was > 100 µM (inactive). For the same molecule, the GI50 [7] was 45 µM (inactive), the GI50 [8] was > 100 µM (inactive) and the GI50 [9] was > 100 µM (inactive). For the same molecule, the GI50 [10] was > 100 µM (inactive), the GI50 [11] was > 100 µM (inactive) and the GI50 [12] was > 100 µM (inactive). The GI50 [13] was > 100 µM (inactive), the GI50 [14] was > 100 µM (inactive) and the GI50 [16] was > 100 µM (inactive). For the same molecule, the GI50 [17] was > 100 µM (inactive), the GI50 [18] was > 100 µM (inactive) and the GI50 [19] was > 100 µM (inactive). For the same molecule, the GI50 [20] was > 100 µM (inactive).

For `CCN(CC)/[N+]([O-])=N/OC`, the GI50 [1] was > 100 µM (inactive), the GI50 [2] was > 100 µM (inactive) and the GI50 [3] was > 100 µM (inactive). For the same molecule, the GI50 [4] was > 100 µM (inactive), the GI50 [5] was > 100 µM (inactive) and the GI50 [6] was > 100 µM (inactive). The GI50 [7] was > 100 µM (inactive), the GI50 [8] was > 100 µM (inactive) and the GI50 [9] was > 100 µM (inactive). For the same molecule, the GI50 [10] was > 100 µM (inactive), the GI50 [11] was > 100 µM (inactive) and the GI50 [12] was > 100 µM (inactive). The GI50 [13] was > 100 µM (inactive), the GI50 [14] was > 100 µM (inactive) and the GI50 [16] was > 100 µM (inactive). For the same molecule, the GI50 [17] was > 100 µM (inactive), the GI50 [18] was > 100 µM (inactive) and the GI50 [19] was > 100 µM (inactive).

With `CNC1=C(C)C(=O)C2=C(C1=O)C(COC(N)=O)C1(OC)C3NC3CN21` (configuration not stated) the GI50 [1] was 2.02 µM (inactive), the GI50 [2] was 0.106 µM (active) and the GI50 [3] was > 10 µM (inactive). For the same molecule, the GI50 [4] was 0.183 µM (active), the GI50 [5] was 0.413 µM (active) and the GI50 [6] was 0.105 µM (active). For the same molecule, the GI50 [7] was 0.0853 µM (active), the GI50 [8] was 0.951 µM (active) and the GI50 [9] was < 0.01 µM (active). For the same molecule, the GI50 [10] was 0.385 µM (active), the GI50 [11] was 1.27 µM (inactive) and the GI50 [12] was 3.53 µM (inactive). The GI50 [13] was 22 µM (inactive), the GI50 [14] was 0.092 µM (active) and the GI50 [15] was 0.141 µM (active). The GI50 [16] was 0.209 µM (active), the GI50 [17] was 1.15 µM (inactive) and the GI50 [18] was 1.29 µM (inactive). The GI50 [19] was 4.07 µM (inactive) and the GI50 [20] was 2.95 µM (inactive).

Reference: ChEMBL document CHEMBL1201862, “PubChem BioAssay data set” (2004)
